Test results published in the supplement of paper PMC10307832.

What was measured:
Experiment in all cases: relative viability (nuclei count vs DMSO), 5 days (fraction); higher = more cells survive
Tosedostat + Vorinostat = compound: CC(C)C[C@@H](C(=O)N[C@H](C(=O)OC1CCCC1)c1ccccc1)[C@H](O)C(=O)NO [Tosedostat] + O=C(CCCCCCC(=O)Nc1ccccc1)NO [Vorinostat] (partner 1 µM)
Method in brief: (§1)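 Relative viability equals treated-well nuclei counts divided by vehicle-well nuclei counts. Counts came from 4× images of lung cancer cell lines grown in 1536-well plates for 5 days after pin-tool dosing on the day after seeding. Dosing used one drug alone or a fixed anchor-drug dose plus five library-drug doses (not always all listed) in √10 steps, and values are medians of duplicate plates.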

Tosedostat + Alpelisib = compound: CC(C)C[C@@H](C(=O)N[C@H](C(=O)OC1CCCC1)c1ccccc1)[C@H](O)C(=O)NO [Tosedostat] + Cc1nc(NC(=O)N2CCC[C@H]2C(N)=O)sc1-c1ccnc(C(C)(C)C(F)(F)F)c1 [Alpelisib] (partner 2 µM)
Method in brief: as §1

[1] = compound: CC1=NN=C(O1)C2=NN=C(C=C2)N3CCC(CC3)OC4=C(C=CC(=C4)F)Cl + C[C@]1(O)C[C@@H](c2nc(-c3ccc4ccc(-c5ccccc5)nc4c3)c3c(N)nccn32)C1 [Linsitinib] (partner 1 µM)
Method in brief: as §1

[2] = compound: CC1=NN=C(O1)C2=NN=C(C=C2)N3CCC(CC3)OC4=C(C=CC(=C4)F)Cl + Cc1nc(Nc2ncc(C(=O)Nc3c(C)cccc3Cl)s2)cc(N2CCN(CCO)CC2)n1 [Dasatinib] (partner 0.075 µM)
Method in brief: as §1

UMC-11 showed a relative viability (Tosedostat + Vorinostat; first compound 0.02 µM) of 0.459, a relative viability (Tosedostat + Vorinostat; first compound 0.06325 µM) of 0.459 and a relative viability (Tosedostat + Vorinostat; first compound 0.2 µM) of 0.372. The relative viability (Tosedostat + Vorinostat; first compound 0.6325 µM) was 0.388, the relative viability (Tosedostat + Vorinostat; first compound 2 µM) was 0.391 and the relative viability (Tosedostat + Alpelisib; first compound 0.02 µM) was 0.962. For the same cell line, the relative viability (Tosedostat + Alpelisib; first compound 0.06325 µM) was 0.87, the relative viability (Tosedostat + Alpelisib; first compound 0.2 µM) was 0.957 and the relative viability (Tosedostat + Alpelisib; first compound 0.6325 µM) was 0.942. The relative viability (Tosedostat + Alpelisib; first compound 2 µM) was 1.03, the relative viability ([1]; first compound 0.253 µM) was 0.758 and the relative viability ([1]; first compound 0.8 µM) was 0.732. It also gave a relative viability ([1]; first compound 2.53 µM) of 0.714, a relative viability ([1]; first compound 8 µM) of 0.744 and a relative viability ([2]; first compound 0.253 µM) of 0.473. For the same cell line, the relative viability ([2]; first compound 0.8 µM) was 0.476, the relative viability ([2]; first compound 2.53 µM) was 0.512 and the relative viability ([2]; first compound 8 µM) was 0.435.
